In PubChem BioAssay AID1745844 (Carcinogenic Potency Database (CPDB), 2022):

Test system: rodent lifetime carcinogenesis bioassay, tumor incidence TD50
Assay: carcinogenic potency in animals, long-term in vivo studies, CPDB compilation (AID 1745844)

In the case of `Brc1cc(Br)c(-c2cc(Br)c(Br)cc2Br)cc1Br`, the TD50 (mouse, strain B6C3F1, females, by gavage, site: any site (literature study), lesion: several types, types named in the paper, dosed 26 weeks, study length 131 weeks) is reported as 0.338 mg/kg/day, the TD50 (mouse, strain B6C3F1, females, by gavage, site: liver, lesion: hepatocellular adenoma + hepatocellular carcinoma + neoplastic nodule, dosed 26 weeks, study length 131 weeks) is reported as 0.402 mg/kg/day and the TD50 (mouse, strain B6C3F1, females, by gavage, site: liver, lesion: hepatocellular carcinoma, dosed 26 weeks, study length 131 weeks) is reported as 0.534 mg/kg/day. The TD50 (mouse, strain B6C3F1, females, by gavage, site: lung, lesion: alveolar/bronchiolar adenoma + alveolar/bronchiolar carcinoma, dosed 26 weeks, study length 131 weeks) was 0.915 mg/kg/day, the TD50 (mouse, strain B6C3F1, females, in feed, site: any site (literature study), lesion: several types, types named in the paper, dosed 105 weeks, study length 105 weeks) was 0.362 mg/kg/day and the TD50 (mouse, strain B6C3F1, females, in feed, site: liver, lesion: hepatocellular adenoma + hepatoblastoma + hepatocellular carcinoma, dosed 105 weeks, study length 105 weeks) was 0.307 mg/kg/day. For the same compound, the TD50 (mouse, strain B6C3F1, females, in feed, site: liver, lesion: hepatocellular adenoma + hepatocellular carcinoma, dosed 105 weeks, study length 105 weeks) was 0.307 mg/kg/day, the TD50 (mouse, strain B6C3F1, females, in feed, site: liver, lesion: hepatocellular adenoma, dosed 105 weeks, study length 105 weeks) was 0.367 mg/kg/day and the TD50 (mouse, strain B6C3F1, females, in feed, site: liver, lesion: hepatocellular carcinoma, dosed 105 weeks, study length 105 weeks) was 0.588 mg/kg/day. The TD50 (mouse, strain B6C3F1, females, in feed, site: lung, lesion: alveolar/bronchiolar adenoma + alveolar/bronchiolar carcinoma, dosed 105 weeks, study length 105 weeks) was 19.1 mg/kg/day, the TD50 (mouse, strain B6C3F1, males, by gavage, site: any site (literature study), lesion: several types, types named in the paper, dosed 26 weeks, study length 131 weeks) was 0.418 mg/kg/day and the TD50 (mouse, strain B6C3F1, males, by gavage, site: liver, lesion: hepatocellular adenoma + hepatocellular carcinoma + neoplastic nodule, dosed 26 weeks, study length 131 weeks) was 0.285 mg/kg/day. For the same compound, the TD50 (mouse, strain B6C3F1, males, by gavage, site: liver, lesion: hepatocellular carcinoma, dosed 26 weeks, study length 131 weeks) was 0.381 mg/kg/day, the TD50 (mouse, strain B6C3F1, males, in feed, site: any site (literature study), lesion: several types, types named in the paper, dosed 105 weeks, study length 105 weeks) was 0.349 mg/kg/day and the TD50 (mouse, strain B6C3F1, males, in feed, site: liver, lesion: hepatocellular adenoma + hepatoblastoma + hepatocellular carcinoma, dosed 105 weeks, study length 105 weeks) was 0.262 mg/kg/day. For the same compound, the TD50 (mouse, strain B6C3F1, males, in feed, site: liver, lesion: hepatocellular adenoma + hepatocellular carcinoma, dosed 105 weeks, study length 105 weeks) was 0.262 mg/kg/day, the TD50 (mouse, strain B6C3F1, males, in feed, site: liver, lesion: hepatocellular adenoma, dosed 105 weeks, study length 105 weeks) was 0.233 mg/kg/day and the TD50 (mouse, strain B6C3F1, males, in feed, site: liver, lesion: hepatocellular carcinoma, dosed 105 weeks, study length 105 weeks) was 0.54 mg/kg/day. It also gave a TD50 (mouse, strain B6C3F1, males, in feed, site: lung, lesion: alveolar/bronchiolar adenoma + alveolar/bronchiolar carcinoma, dosed 105 weeks, study length 105 weeks) of 54.9 mg/kg/day, a TD50 (rat, strain Fischer 344, females, by gavage, site: any site (literature study), lesion: several types, types named in the paper, dosed 25 weeks, study length 124 weeks) of 0.365 mg/kg/day and a TD50 (rat, strain Fischer 344, females, by gavage, site: liver, lesion: cholangiocarcinoma + hepatocellular carcinoma + neoplastic nodule, dosed 25 weeks, study length 124 weeks) of 0.596 mg/kg/day. It also gave a TD50 (rat, strain Fischer 344, females, by gavage, site: liver, lesion: cholangiocarcinoma, dosed 25 weeks, study length 124 weeks) of 2.1 mg/kg/day, a TD50 (rat, strain Fischer 344, females, by gavage, site: liver, lesion: hepatocellular adenoma + hepatocellular carcinoma + neoplastic nodule, dosed 25 weeks, study length 124 weeks) of 0.645 mg/kg/day and a TD50 (rat, strain Fischer 344, females, by gavage, site: liver, lesion: hepatocellular carcinoma, dosed 25 weeks, study length 124 weeks) of 1.65 mg/kg/day. The TD50 (rat, strain Fischer 344, females, by gavage, site: liver, lesion: neoplastic nodule, dosed 25 weeks, study length 124 weeks) was 1.1 mg/kg/day, the TD50 (rat, strain Fischer 344, females, in feed, site: any site (literature study), lesion: several types, types named in the paper, dosed 104 weeks, study length 104 weeks) was 2.38 mg/kg/day and the TD50 (rat, strain Fischer 344, females, in feed, site: liver, lesion: hepatocellular adenoma + hepatoblastoma + hepatocellular carcinoma, dosed 104 weeks, study length 104 weeks) was 0.656 mg/kg/day. The TD50 (rat, strain Fischer 344, females, in feed, site: liver, lesion: hepatocellular adenoma + hepatocellular carcinoma, dosed 104 weeks, study length 104 weeks) was 0.656 mg/kg/day, the TD50 (rat, strain Fischer 344, females, in feed, site: liver, lesion: hepatocellular adenoma, dosed 104 weeks, study length 104 weeks) was 0.7 mg/kg/day and the TD50 (rat, strain Fischer 344, females, in feed, site: liver, lesion: hepatocellular carcinoma, dosed 104 weeks, study length 104 weeks) was 8.22 mg/kg/day. For the same compound, the TD50 (rat, strain Fischer 344, females, in feed, site: mammary gland, lesion: fibroadenoma, dosed 104 weeks, study length 104 weeks) was 1.59 mg/kg/day, the TD50 (rat, strain Fischer 344, males, by gavage, site: any site (literature study), lesion: several types, types named in the paper, dosed 25 weeks, study length 118 weeks) was 0.0645 mg/kg/day and the TD50 (rat, strain Fischer 344, males, by gavage, site: liver, lesion: cholangiocarcinoma + hepatocellular carcinoma + neoplastic nodule, dosed 25 weeks, study length 118 weeks) was 0.148 mg/kg/day. The TD50 (rat, strain Fischer 344, males, by gavage, site: liver, lesion: cholangiocarcinoma, dosed 25 weeks, study length 118 weeks) was 14.4 mg/kg/day, the TD50 (rat, strain Fischer 344, males, by gavage, site: liver, lesion: hepatocellular adenoma + hepatocellular carcinoma + neoplastic nodule, dosed 25 weeks, study length 118 weeks) was 0.151 mg/kg/day and the TD50 (rat, strain Fischer 344, males, by gavage, site: liver, lesion: hepatocellular carcinoma, dosed 25 weeks, study length 118 weeks) was 1.3 mg/kg/day. It also gave a TD50 (rat, strain Fischer 344, males, by gavage, site: liver, lesion: neoplastic nodule, dosed 25 weeks, study length 118 weeks) of 0.168 mg/kg/day, a TD50 (rat, strain Fischer 344, males, in feed, site: any site (literature study), lesion: several types, types named in the paper, dosed 104 weeks, study length 104 weeks) of 1.56 mg/kg/day and a TD50 (rat, strain Fischer 344, males, in feed, site: liver, lesion: hepatocellular adenoma + hepatoblastoma + hepatocellular carcinoma, dosed 104 weeks, study length 104 weeks) of 0.408 mg/kg/day. For the same compound, the TD50 (rat, strain Fischer 344, males, in feed, site: liver, lesion: hepatocellular adenoma + hepatocellular carcinoma, dosed 104 weeks, study length 104 weeks) was 0.408 mg/kg/day, the TD50 (rat, strain Fischer 344, males, in feed, site: liver, lesion: hepatocellular adenoma, dosed 104 weeks, study length 104 weeks) was 0.461 mg/kg/day and the TD50 (rat, strain Fischer 344, males, in feed, site: liver, lesion: hepatocellular carcinoma, dosed 104 weeks, study length 104 weeks) was 1.19 mg/kg/day.
